{"source": "patent US11013709B2", "about": "“Highly purified eicosapentaenoic acid, as free fatty acid, reduces fecal calprotectin levels and prevents clinical relapse in ulcerative colitis patients” (S.L.A. PHARMA AG, priority 2017, dated 2021)", "key": {"[1]": {"conditions": "cited from earlier work"}, "[2]": {"tested_on": "fecal calprotectin (FC)", "experiment": "Double-blind, randomized, placebo-controlled study in UC patients: fecal calprotectin level (ELISA, Calprest)", "format": "in vivo, human", "conditions": "over a six month period of administering highly purified EPA-FFA", "method": "The present invention provides for a double-blind, randomized, placebo-controlled study with UC patients with fecal calprotectin level ≥150 μg/g and in stable therapy for at least the 3 previous months. Each subject, receives either 2 grams daily of EPA-FFA (2 dosages of 500 mg sustained-release capsules, twice a day) or placebo (2 dosages of 500 mg sustained-release capsules of capric and caprylic acids, twice daily) for a 6 month period. At baseline, the patients undergo a total colonoscopy. Fecal calprotectin levels, clinical and laboratory assessments are performed at baseline, 3 and 6 months or at the time of clinical relapse, which has been defined as the occurrence of symptoms accompanied by an increase in the partial Mayo score ≥2 and/or requiring a change in therapy. […]\nThe primary endpoint is the proportion of patients achieving a 100-point reduction (100 μg/g or greater) from baseline in FC level at 6 months. […] A combined endpoint consisting of the number of patients achieving the primary and secondary endpoints is also calculated. […]\nA fecal sample from the first bowel movement in the morning is stored in a refrigerator at 2-8° C. for a maximum of 24 h before performing the analysis. Quantification of FC levels is carried out using a quantitative, enzyme-linked immunosorbent assay (Calprest; Eurospital, Trieste, Italy), according to the manufacturers' instructions. […]"}, "[3]": {"experiment": "Safety and tolerability in placebo-controlled trial of UC patients", "format": "in vivo, human", "conditions": "60 patients with UC treated for 6 months", "method": "The present invention provides for a double-blind, randomized, placebo-controlled study with UC patients with fecal calprotectin level ≥150 μg/g and in stable therapy for at least the 3 previous months. Each subject, receives either 2 grams daily of EPA-FFA (2 dosages of 500 mg sustained-release capsules, twice a day) or placebo (2 dosages of 500 mg sustained-release capsules of capric and caprylic acids, twice daily) for a 6 month period. At baseline, the patients undergo a total colonoscopy. Fecal calprotectin levels, clinical and laboratory assessments are performed at baseline, 3 and 6 months or at the time of clinical relapse, which has been defined as the occurrence of symptoms accompanied by an increase in the partial Mayo score ≥2 and/or requiring a change in therapy.\nPatients who satisfied the inclusion criteria undergo blood tests, including C-reactive protein (CRP) (normal upper limit 5 mg/L) and a total colonoscopy with multiple biopsies at baseline. They are then randomized 1:1 to receive either 2 g daily of EPA-FFA (2×500 mg gastro-resistant sustained-release capsules, twice-daily) or 2 g of placebo (2×500 mg gastro-resistant sustained-release capsules of capric and caprylic acids that are triglycerides of the fractionated plant fatty acids, twice-daily) for a 6-month period. The entire study team are blinded to the treatment assignment."}}}
{"compound": "CC/C=C\\C/C=C\\C/C=C\\C/C=C\\C/C=C\\CCCC(=O)O", "note": "[EPA-FFA, eicosapentaenoic acid]", "values": [{"measurement": "incorporation of EPA into plasma phospholipids and red blood cell membranes", "setting": "[1]; 2 g daily for 8 weeks, patients with IBD and healthy volunteers", "value": "consistently incorporated into plasma phospholipids and red blood cell membranes"}, {"measurement": "metabolic conversion", "setting": "[1]", "value": "quickly converted into docosahexaenoic acid via docosapentaenoic acid"}, {"measurement": "reduction of FC", "setting": "[2]", "value": "at least 100 μg/g"}, {"measurement": "serious adverse events", "setting": "[3]", "value": "no serious adverse events"}]}
